Assay results as given in PubChem BioAssay (NCI).
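The compound was tested at five concentrations on cells cultured in 96-well plates, with a 48-hour exposure period. The concentration for full growth arrest is given as TGI.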

How the values were obtained:
Assay in all cases: NCI-60 cell line screen, 48 h
CAKI-1 renal = tested on: CAKI-1 renal
EKVX NSCLC = tested on: EKVX NSCLC
HOP-62 NSCLC = tested on: HOP-62 NSCLC
IGROV1 ovarian = tested on: IGROV1 ovarian
MOLT-4 leukemia = tested on: MOLT-4 leukemia
OVCAR-4 ovarian = tested on: OVCAR-4 ovarian
OVCAR-5 ovarian = tested on: OVCAR-5 ovarian
SF-295 CNS = tested on: SF-295 CNS
SK-MEL-2 melanoma = tested on: SK-MEL-2 melanoma
SW-620 colon = tested on: SW-620 colon
UACC-257 melanoma = tested on: UACC-257 melanoma
UACC-62 melanoma = tested on: UACC-62 melanoma
UO-31 renal = tested on: UO-31 renal
SN12C renal = tested on: SN12C renal
MCF7 breast = tested on: MCF7 breast
MDA-N = tested on: MDA-N
MDA-MB-231 breast = tested on: MDA-MB-231 breast

SMILES | TGI (CAKI-1 renal) [µM] | TGI (EKVX NSCLC) [µM] | TGI (HOP-62 NSCLC) [µM] | TGI (IGROV1 ovarian) [µM] | TGI (MOLT-4 leukemia) [µM] | TGI (OVCAR-4 ovarian) [µM] | TGI (OVCAR-5 ovarian) [µM] | TGI (SF-295 CNS) [µM] | TGI (SK-MEL-2 melanoma) [µM] | TGI (SW-620 colon) [µM] | TGI (UACC-257 melanoma) [µM] | TGI (UACC-62 melanoma) [µM] | TGI (UO-31 renal) [µM] | TGI (SN12C renal) [µM] | TGI (MCF7 breast) [µM] | TGI (MDA-N) [µM] | TGI (MDA-MB-231 breast) [µM]
Oc1cc(CN2CCOCCOCCOCCOCC2)c(O)cc1CN1CCOCCOCCOCCOCC1 | 38.9 | > 100 | > 100 | > 100 | 52.6 | 34 | 61.6 | > 100 | > 93.4 | 53.1 | > 100 | > 72.2 | > 100 |  |  |  | 
CC/C(=N/O)c1ccc2[nH]c3c(C)cc([N+](=O)[O-])c(C)c3c2c1 | > 100 | > 100 | > 100 |  | > 100 | > 100 | > 100 | > 100 | > 100 | > 100 | > 100 |  | > 100 | > 100 |  |  | 
CN(C)/C=N\c1nncc2[nH]cnc12 | > 100 | > 100 | > 100 | > 100 | > 100 | > 100 | > 100 | > 100 | > 100 | > 100 | > 100 | > 100 | > 100 | > 100 | > 100 | > 100 | 
COc1ccccc1-n1c(NN)nc2ccc(Br)cc2c1=O | > 100 | > 100 | > 100 | > 100 | > 100 | > 100 | 68.8 | > 100 | > 100 | > 100 | 72.1 | > 100 | 93.1 | > 100 |  |  | 
COc1cccc(C=C2N=C(c3ccccc3)N(n3c(-c4ccccc4)nc4ccccc4c3=O)C2=O)c1 | > 100 | > 100 | > 100 | > 100 | > 100 |  |  | > 100 |  | > 100 | > 100 | > 100 | > 100 | > 100 | > 100 | > 100 | > 100
O=c1cc(NNc2ccccc2F)[nH]c(=O)[nH]1 | 25.7 |  |  | 30.4 | 54 | 31.5 | 38.7 |  | 30.8 | 31.9 | 32 | 30.9 | 24.6 |  | 21.2 | 32.5 | 29.9
Nc1ncnc2c1ncn2-c1ccc([N+](=O)[O-])cn1 | > 100 |  | > 100 |  |  | > 100 | > 100 | > 100 | > 100 | > 100 | > 100 | > 100 | > 100 | > 100 | > 100 | > 100 | > 100
Cc1ccc(NC(=O)CSc2nnc(Cc3ccccc3)o2)cc1 | > 100 | > 100 | > 100 | > 100 | > 100 | > 100 | > 100 | > 100 | > 100 | > 100 | > 100 | > 100 | > 100 | > 100 |  |  | 
COc1ccc(-n2c3c(c4cc(O)ccc42)Cc2ccccc2C3=O)cc1 | > 100 |  | > 100 | > 100 | > 100 | 82.1 |  | 86.7 | > 100 | > 100 | > 100 | > 100 | > 100 | > 100 | 79.7 | > 100 | > 100
C[C@@H]1O[C@]2(O)[C@@H]3CCCN3S(=O)(=O)CCN2C1=O | > 100 | > 100 | > 100 | > 100 | > 100 | > 100 | > 100 | > 100 |  | > 100 | > 100 | > 100 | > 100 | > 100 |  |  | 
CCOC(=O)CCC(NC(=O)c1ccc(N=Cc2nc3ccccc3nc2-c2ccccc2)cc1)C(=O)OCC (stereo unspecified) | > 100 | > 100 | > 100 | > 100 | > 100 | > 100 | > 100 | > 100 | > 100 | > 100 | > 100 | > 100 | > 100 | > 100 |  |  | 
Cc1cccc(/C=N\NC(=S)N2CCCCC2)n1 | 3.62 | > 100 | 0.525 | 0.0702 |  |  | > 100 | 6.58 | > 100 | > 100 | 0.0589 | 3.81 | 26.2 | 9.38 |  | > 100 | 
Cc1ccc(OCC2=NC3S/C(=C/c4ccc([N+](=O)[O-])o4)C(=O)N3N2)cc1 (stereo unspecified) | 32 | 24.5 | 33.7 | 22.5 | 6.94 | 7.86 | 35.2 | 30.4 | 31.7 | 15 | 25.5 |  | 34.8 | 37 |  | 20.7 | 26.6
C[C@@]1(Cc2ccccc2)C(=O)N2[C@@H](CO)C(c3ccccc3)O[C@]2(C)c2ccccc21 (stereo partly specified) | > 100 | > 100 | > 100 | > 100 | > 100 | > 100 | > 100 | > 100 | > 100 | > 100 |  | > 100 | > 100 |  |  |  | 
CCc1[nH]c(=O)c2oc3cc4ccccc4cc3c2c1C(=O)O |  | > 10 |  | > 10 |  | > 10 | > 10 | > 10 | > 10 | > 10 | > 10 |  | > 10 | > 10 |  |  | > 10
CCCCNC(=NCc1ccccc1)NC#N | > 100 | > 100 | > 100 | > 100 | > 100 | > 100 | > 100 | > 100 | > 100 | > 100 |  | > 100 | > 100 | > 100 |  |  | 
